Literature values in patent EP4066850A2, “PEPTIDES AND METHODS OF TREATING DYSTROPHY-RELATED DISORDERS USING THE SAME” (Bioincept LLC, priority 2017, dated 2018).

Conditions: IV infusion together with radiation; xerostomia treatment (Kouvaria et al 2007)

## NCCCNCCSP(=O)(O)O [Amifostine]
  side effects: serious side effects including fatal skin reaction
